# Results from article PMC5947527 (Chemical Science, 2015).
# Non-standard residues stand in square brackets, D forms with d. Residues, ends and D or L forms follow the SMILES beside them. *: point of attachment. NBD = O=[N+]([O-])c1ccc(*)c2nonc12; Nle = CCCC[C@H](N)C(=O)O; Ahx = NCCCCCC(=O)O
# Tested on: Methicillin sensitive S. aureus, K. pneumoniae and P. aeruginosa
# Test: Bacterial affinity: fluorescence retention following a PBS wash (confocal)
# Format: cell-based
# Settings: 10 µM, two gentle PBS washes, three bacterial species, n=3
# Experimental: Three compounds (UBI-3, UBI-5 and UBI-10) were assessed for further evaluation. […] In vitro affinity of bacterial binding was assessed by incorporating a wash step in the live confocal imaging protocol with a panel of bacteria with the ‘wash-off’ representing a surrogate indicator of Smartprobe-bacterial labelling affinity. […] UBI-10, therefore, was assessed further in a clinically relevant biological system.
# Figure S4. Quantified fluorescence of confocal microscopy images of the compounds UBI-3, UBI-5 and UBI-10 on three bacteria and fluorescence retention following a PBS wash. Quantification of fluorescence intensity of (A) Methicillin sensitive S. aureus, (B) K. pneumoniae and (C) and P. […]
# intensity following a PBS wash. […]
# Confocal Analysis and Fluorescence Quantification: 8-Well Lab-Tek II Confocal Chambers (VWR, PA, USA) were coated in fibronectin (for neutrophil experiments) or poly-d-lysine (for bacteria) at 37 °C for 20 minutes, then washed in PBS prior to bacterial innoculation. For co-culture assays, neutrophils were seeded on fibronectin coated wells at 1 x 10^5 neutrophils per well for 20 minutes and non-adherent neutrophils aspirated. Bacteria were added to each chamber to a final concentration of 0.5 OD595 nm with the desired final concentration of Smartprobe. A laser-scanning confocal imaging system (LSM510; Carl Zeiss, Jena, Germany), incorporating an upright Axioskop FS2 microscope (63× objective) was used for image acquisition and processing. Exposure to 488 nm light was limited to 5% of the maximum laser power in order to minimize toxicity. ‘Green’ fluorescence (for FAM and NBD) was excited with a dedicated 488 nm line and emitted light detected with meta detector (500-530 nM).
# Syto nuclear and dyes were excited with a dedicated 543 nm line, and emitted light detected with meta detector (570-610 nM). Fields of view were chosen based on the counterstain and at least three fields of view were recorded for each condition. For affinity assays, following initial imaging, the fluid was aspirated and two gentle washes with PBS were performed. The chamber was re-imaged on confocal.
# Analysis was with ImageJ (version 1.46r, National Institutes of Health, USA); the Syto channel was automatically thresholded (MaxEntropy, with a set threshold 0-47) and an ROI generated from this. The […]
# mean fluorescence intensity on the probe channel within this ROI was quantified. Data presented represents the mean of three experiments, from each of which three separate fields of view were assessed. All experiments were performed at least three times unless otherwise stated and results expressed as mean ± SEM. Data was analysed by unpaired t-test and significance was determined as p<0.05 (GraphPad Prism version 5.01 for Windows, GraphPad Software, San Diego California USA).
# Ex vivo Human Lung and FCFM Procedure: Human lung samples were obtained from patients undergoing surgical resection for lung carcinoma. All images were obtained on sections of normal lung away from the cancerous growth. Informed consent was obtained and the study was approved by the Regional Ethics Committee. Samples were taken fresh from the operating theatre, dissected into 4mm sections and placed in wells of 96 well plate. Bacteria were pre-labelled with Smartprobe or Calcein AM and co-cultured in the well with a maximum volume of 100µl. […]
compound,measurement,value
CCCC[C@H](NC(=O)[C@H](CCCNC(=N)N)NC(=O)[C@H](CCCNC(=N)N)NC(=O)[C@H](CCCCN)NC(=O)[C@H](C)NC(=O)[C@H](CCCNC(=N)N)NC(=O)CNC(=O)[C@@H](NC(=O)CCCCCNc1ccc([N+](=O)[O-])c2nonc12)[C@@H](C)O)C(=O)N[C@@H](CCC(N)=O)C(=O)N[C@@H](Cc1ccc(O)cc1)C(=O)N[C@@H](CC(N)=O)C(=O)N[C@@H](CCCNC(=N)N)C(=O)N[C@@H](CCCNC(=N)N)C(N)=O [UBI-3] ({NBD-Ahx}-TGRAKRR[Nle]QYNRR-NH2),fluorescence following labelling and a PBS wash,significantly lower fluorescence
CCCC[C@@H]1NC(=O)[C@H](CCCNC(=N)N)NC(=O)[C@H](CCCNC(=N)N)NC(=O)[C@H](CCCCN)NC(=O)[C@H](C)NC(=O)[C@H](CCCNC(=N)N)NC(=O)CNC(=O)[C@H]([C@@H](C)O)NC(=O)[C@@H](NC(=O)CCCCCNc2ccc([N+](=O)[O-])c3nonc23)CCCCNC(=O)CNC(=O)[C@H](CCCNC(=N)N)NC(=O)[C@H](CCCNC(=N)N)NC(=O)[C@H](CC(N)=O)NC(=O)[C@H](Cc2ccc(O)cc2)NC(=O)[C@H](CCC(N)=O)NC1=O [UBI-10],fluorescence following labelling and a PBS wash,retains a significant fluorescence intensity
